Patent US20230085307A1, “PYRIDAZINONE COMPOUND AND HERBICIDE” (NISSAN CHEMICAL CORPORATION, priority 2019, published 2023)

Legend:
velvetleaf [1] = experiment: Test Example 4: herbicidal effect by soil treatment (Table 19, symbol M); type: in vivo, velvetleaf (Abutilon theophrasti); conditions: amount of applied herbicide 320 g/ha
Procedure, shortened: (§1)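 Herbicidal effect was rated 3 weeks after treatment, using the scoring criteria of an earlier test. The compound, formulated as an emulsion and diluted in water to a set herbicide amount, had been sprayed uniformly on soil over freshly sown seeds. Growth took place in a greenhouse at 25° C. to 30° C.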

Japanese bulrush [2] = experiment: Test Example 1: herbicidal activity, application before weed generation under submerged conditions (Table 16, symbol B); type: in vivo, Japanese bulrush (Schoenoplectus juncoides); conditions: amount of applied herbicide 320 g/ha
Procedure, shortened: (§2)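 Emulsion formulation, water-diluted to set dose, was put onto the flooded surface (4 cm depth, alluvial soil) the same day weeds were sown and 2.5-leaf rice transplanted. After 3 weeks at 25-30 °C under glass, each species was rated 0 (≤5% kill) to 5 (≥90% kill).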

barnyard grass = experiment: Test Example 5: herbicidal effect by foliage application, plastic box (Table 20, symbol H); type: in vivo, barnyard grass (Echinochloa crus-galli); conditions: foliage application, 320 g/ha, three weeks after application
Procedure, shortened: (§3)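 Foliar spray test: emulsion formulation diluted in water to a set application rate, sprayed onto 14-day-old plants raised in diluvial soil at 25° C to 30° C under glass. Both herbicidal effect and crop effect rated visually three weeks later.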

velvetleaf [3] = experiment: Test Example 5: herbicidal effect by foliage application, plastic box (Table 20, symbol M); type: in vivo, velvetleaf (Abutilon theophrasti); conditions: foliage application, 320 g/ha, three weeks after application
Procedure, shortened: as §3

chickweed = experiment: Test Example 5: herbicidal effect by foliage application, plastic box (Table 20, symbol P); type: in vivo, common chickweed (Stellaria media); conditions: foliage application, 320 g/ha, three weeks after application
Procedure, shortened: as §3

late watergrass = experiment: Test Example 1: herbicidal activity, application before weed generation under submerged conditions (Table 16, symbol A); type: in vivo, late watergrass (Echinochloa oryzicola); conditions: amount of applied herbicide 320 g/ha
Procedure, shortened: as §2

southern crabgrass = experiment: Test Example 5: herbicidal effect by foliage application, plastic box (Table 20, symbol F); type: in vivo, southern crabgrass (Digitaria ciliaris); conditions: foliage application, 320 g/ha, three weeks after application
Procedure, shortened: as §3

wild oat [4] = experiment: Test Example 4: herbicidal effect by soil treatment (Table 19, symbol I); type: in vivo, wild oat (Avena fatua); conditions: amount of applied herbicide 320 g/ha
Procedure, shortened: as §1

wild oat [5] = experiment: Test Example 5: herbicidal effect by foliage application, plastic box (Table 20, symbol I); type: in vivo, wild oat (Avena fatua); conditions: foliage application, 320 g/ha, three weeks after application
Procedure, shortened: as §3

oval-leafed pondweed = experiment: Test Example 2: herbicidal activity, application during weed generation under submerged conditions (Table 17, symbol C); type: in vivo, oval-leafed pondweed (Monochoria vaginalis); conditions: AAH 320 g/ha; application during weed generation, submerged conditions
Procedure, shortened: (§4)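 In this pot test, flooded alluvial soil (water depth 4 cm) holds all three species sown as a mixture. Once seedlings have one to two leaves, the compound's emulsion, thinned with water to the intended dose, is poured on the water; grading follows after three weeks on the earlier criteria.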

green foxtail [6] = experiment: Test Example 5: herbicidal effect by foliage application, plastic box (Table 20, symbol G); type: in vivo, green foxtail (Setaria viridis); conditions: foliage application, 320 g/ha, three weeks after application
Procedure, shortened: as §3

lambsquarters = experiment: Test Example 4: herbicidal effect by soil treatment (Table 19, symbol O); type: in vivo, lambsquarters (Chenopodium album); conditions: amount of applied herbicide 320 g/ha
Procedure, shortened: as §1

redroot pigweed = experiment: Test Example 4: herbicidal effect by soil treatment (Table 19, symbol N); type: in vivo, redroot pigweed (Amaranthus retroflexus); conditions: amount of applied herbicide 320 g/ha
Procedure, shortened: as §1

blackgrass [7] = experiment: Test Example 5: herbicidal effect by foliage application, plastic box (Table 20, symbol J); type: in vivo, blackgrass (Alopecurus myosuroides); conditions: foliage application, 320 g/ha, three weeks after application
Procedure, shortened: as §3

Italian ryegrass [8] = experiment: Test Example 5: herbicidal effect by foliage application, plastic box (Table 20, symbol K); type: in vivo, Italian ryegrass (Lolium multiflorum); conditions: foliage application, 320 g/ha, three weeks after application
Procedure, shortened: as §3

green foxtail [9] = experiment: Test Example 4: herbicidal effect by soil treatment (Table 19, symbol G); type: in vivo, green foxtail (Setaria viridis); conditions: amount of applied herbicide 320 g/ha
Procedure, shortened: as §1

blackgrass [10] = experiment: Test Example 4: herbicidal effect by soil treatment (Table 19, symbol J); type: in vivo, blackgrass (Alopecurus myosuroides); conditions: amount of applied herbicide 320 g/ha
Procedure, shortened: as §1

persian speedwell = experiment: Test Example 4: herbicidal effect by soil treatment (Table 19, symbol R); type: in vivo, Persian speedwell (Veronica persica); conditions: amount of applied herbicide 320 g/ha
Procedure, shortened: as §1

Italian ryegrass [11] = experiment: Test Example 4: herbicidal effect by soil treatment (Table 19, symbol K); type: in vivo, Italian ryegrass (Lolium multiflorum); conditions: amount of applied herbicide 320 g/ha
Procedure, shortened: as §1

Japanese bulrush [12] = experiment: Test Example 2: herbicidal activity, application during weed generation under submerged conditions (Table 17, symbol B); type: in vivo, Japanese bulrush (Schoenoplectus juncoides); conditions: AAH 320 g/ha; application during weed generation, submerged conditions
Procedure, shortened: as §4

windgrass = experiment: Test Example 5: herbicidal effect by foliage application, plastic box (Table 20, symbol L); type: in vivo, windgrass (Apera spica-venti); conditions: foliage application, 320 g/ha, three weeks after application
Procedure, shortened: as §3

| SMILES | Herbicidal effect, B: Japanese bulrush (Japanese bulrush [2]) | H: barnyard grass, herbicidal effect grade (barnyard grass) | M: velvetleaf, herbicidal effect grade (velvetleaf [3]) | P: chickweed, herbicidal effect grade (chickweed) | Herbicidal effect, A: late watergrass (late watergrass) | F: southern crabgrass, herbicidal effect grade (southern crabgrass) | I: wild oat, herbicidal effect grade (wild oat [5]) | herbicidal effect rating, C: oval-leafed pondweed (oval-leafed pondweed) | G: green foxtail, herbicidal effect grade (green foxtail [6]) | J: blackgrass, herbicidal effect grade (blackgrass [7]) | K: Italian ryegrass, herbicidal effect grade (Italian ryegrass [8]) | herbicidal effect rating, B: Japanese bulrush (Japanese bulrush [12]) | also measured |
| --- | --- | --- | --- | --- | --- | --- | --- | --- | --- | --- | --- | --- | --- |
| CCCC(=O)Oc1c(C)nn(C)c(=O)c1-c1c(-c2ccc(C(F)(F)F)cc2)sc2cc(F)ccc12 [3-140] | 3 (Herbicidal rate of 40% or more and less than 70%) | 3 (Herbicidal rate of 40% or more and less than 70%) | 5 (Herbicidal rate of 90% or more (almost completely withered)) | 5 (Herbicidal rate of 90% or more (almost completely withered)) | 5 (Herbicidal rate of 90% or more (almost completely withered)) | 1 (Herbicidal rate of 5% or more and less than 20%) | 2 (Herbicidal rate of 20% or more and less than 40%) | 3 (Herbicidal rate of 40% or more and less than 70%) | 2 (Herbicidal rate of 20% or more and less than 40%) | 0 (Herbicidal rate of 5% or less (almost no effect)) | 0 (Herbicidal rate of 5% or less (almost no effect)) | 3 (Herbicidal rate of 40% or more and less than 70%) | Herbicidal effect by soil treatment, M: velvetleaf (velvetleaf [1]): 0 (Herbicidal rate of 5% or less (almost no effect)); Herbicidal effect by soil treatment, I: wild oat (wild oat [4]): 0 (Herbicidal rate of 5% or less (almost no effect)); Herbicidal effect by soil treatment, O: lambsquarters (lambsquarters): 3 (Herbicidal rate of 40% or more and less than 70%); Herbicidal effect by soil treatment, N: redroot pigweed (redroot pigweed): 4 (Herbicidal rate of 70% or more and less than 90%); Herbicidal effect by soil treatment, G: green foxtail (green foxtail [9]): 0 (Herbicidal rate of 5% or less (almost no effect)); Herbicidal effect by soil treatment, J: blackgrass (blackgrass [10]): 0 (Herbicidal rate of 5% or less (almost no effect)); Herbicidal effect by soil treatment, R: persian speedwell (persian speedwell): 0 (Herbicidal rate of 5% or less (almost no effect)); Herbicidal effect by soil treatment, K: Italian ryegrass (Italian ryegrass [11]): 0 (Herbicidal rate of 5% or less (almost no effect)) |
| CCCC(=O)Oc1c(C)nn(C)c(=O)c1-c1c(-c2ccc(F)cc2OC)sc2cc(OC)ccc12 [3-077] | 5 (Herbicidal rate of 90% or more (almost completely withered)) | 0 (Herbicidal rate of 5% or less (almost no effect)) | 4 (Herbicidal rate of 70% or more and less than 90%) | 5 (Herbicidal rate of 90% or more (almost completely withered)) | 5 (Herbicidal rate of 90% or more (almost completely withered)) | 0 (Herbicidal rate of 5% or less (almost no effect)) | 4 (Herbicidal rate of 70% or more and less than 90%) | 4 (Herbicidal rate of 70% or more and less than 90%) | 5 (Herbicidal rate of 90% or more (almost completely withered)) | 4 (Herbicidal rate of 70% or more and less than 90%) | 3 (Herbicidal rate of 40% or more and less than 70%) | 4 (Herbicidal rate of 70% or more and less than 90%) | L: windgrass, herbicidal effect grade (windgrass): 4 (Herbicidal rate of 70% or more and less than 90%); M: velvetleaf, herbicidal effect grade (velvetleaf [1]): 0 (Herbicidal rate of 5% or less (almost no effect)); I: wild oat, herbicidal effect grade (wild oat [4]): 2 (Herbicidal rate of 20% or more and less than 40%); O: lambsquarters, herbicidal effect grade (lambsquarters): 4 (Herbicidal rate of 70% or more and less than 90%); N: redroot pigweed, herbicidal effect grade (redroot pigweed): 5 (Herbicidal rate of 90% or more (almost completely withered)); J: blackgrass, herbicidal effect grade (blackgrass [10]): 3 (Herbicidal rate of 40% or more and less than 70%); R: persian speedwell, herbicidal effect grade (persian speedwell): 4 (Herbicidal rate of 70% or more and less than 90%); K: Italian ryegrass, herbicidal effect grade (Italian ryegrass [11]): 3 (Herbicidal rate of 40% or more and less than 70%) |
